Molecular target: T1, human PDHK2 (hPDHK2) (Homo sapiens, UniProt Q15119)
T1 construct: made in house; host or cells: Escherichia coli BL21(DE3), pET-17b vector
Assay: Inhibitory action of PDHK2 activity (residual PDH activity, NADH absorbance at 340 nm)
Format: biochemical
Conditions: for IC50: PDH/hPDHK2 complex, PDHK reaction 45 min at room temperature; for inhibition at 0.1 µM: given when IC50 value could not be calculated, read-out: hPDHK2 inhibitory rate
Method: In the case of human PDHK2 (hPDHK2, NCBI Reference Database Accession number NM_002611.4), modified hPDHK2 cDNA wherein FLAG-Tag sequence was added to the N terminus of hPDHK2 cDNA clone (pReceiver-M01/PDK2-GeneCopoeia) as the base was prepared by polymerase chain reaction (PCR) and ligated to the NdeI/EcoRI site of pET-17b vector (Merck KGaA, Catalog Number 69663-3). The recombinant construct was transformed into Escherichia coli DH5α. The recombinant clones were identified, and plasmid DNA was isolated and subjected to the DNA sequence analysis. One clone which had the expected nucleic acid sequence was selected for expression work.
For expression of hPDHK2 activity, Escherichia coli strain BL21(DE3) cells (Merck KGaA, Catalog Number 69450-4) were transformed with the pET17b vector containing modified hPDHK2 cDNA. The Escherichia coli were grown to an optical density 0.6 ([…]) at 30° C. Protein expression was induced by the addition of 500 μmol/L isopropyl-β-thiogalactopyranoside. The Escherichia coli were cultured at 20° C. for 17-18 hr and harvested by centrifugation. The harvested Escherichia coli was resuspended in a suspension buffer (20 mmol/L HEPES-NaOH, 500 mmol/L sodium chloride, 1% ethylene glycol, 0.1% Pluronic (registered trademark) F-68 (pH 8.0), cOmplete, EDTA-free (Roche) (pH 8.0)), and disrupted by a microfluidizer M-110H (MIZUHO INDUSTRIAL CO., LTD.). The precipitate was removed by centrifugation and the supernatant was added to DDDDK-tagged Protein PURIFICATION GEL (MEDICAL & BIOLOGICAL LABORATORIES CO., LTD., Code No. 3329). DDDDK-tagged Protein PURIFICATION GEL was washed with a washing buffer (20 mmol/L HEPES-NaOH, 500 mmol/L sodium chloride, 1% ethylene glycol, 0.1% Pluronic F-68 (pH 8.0)) and the bound protein was eluted with elution buffer 1 (20 mmol/L HEPES-NaOH, 100 μg/mL peptide (amino acid sequence DYKDDDDK) (SEQ ID NO: 1), 500 mmol/L sodium chloride, 1% ethylene glycol, 0.1% Pluronic F-68 (pH 8.0)). The eluted fractions containing FLAG-Tagged protein were pooled, concentrated by an ultrafiltration method, added to a gel filtration column (HiLoad 26/60 Superdex 200 (GE Healthcare Life Sciences, Code No. 17-1070-01)), and eluted with elution buffer 2 (20 mmol/L HEPES-NaOH, 150 mmol/L sodium chloride, 0.5 mmol/L ethylenediaminetetraacetic acid (EDTA), 1% ethylene glycol, 0.1% Pluronic F-68 (pH 8.0)). The eluted fractions were pooled and preserved at −80° C.
PDH (porcine heart PDH complex, Sigma P7032) and 0.5 μg/mL hPDHK2 were mixed in an assay buffer (50 mmol/L 3-morpholinopropanesulfonic acid (pH 7.0), 20 mmol/L dipotassium hydrogen phosphate, 60 mmol/L potassium chloride, 2 mmol/L magnesium chloride, 0.4 mmol/L EDTA, 0.2% poloxamer, 2 mmol/L dithiothreitol) so that the final concentration of PDH was 0.025 U/mL, and the mixture was incubated at 4° C. overnight to obtain a PDH/hPDHK2 complex solution.
PDH was mixed with the assay buffer so that the final concentration was 0.025 U/mL, and the mixture was incubated at 4° C. overnight to prepare a PDH solution.
The test compounds were diluted with DMSO. To measure an inhibitory action of the test compound on the PDHK activity in the PDH/hPDHK2 complex solution, PDH/hPDHK2 complex solution (20 μL), test compound (1.5 μL) and 1.06 μmol/L ATP (diluted with assay buffer) (8.5 μL) were added to a 384 well microplate (Greiner Bio-One 781801) and PDHK reaction was performed at room temperature for 45 min (test compound well). DMSO (1.5 μL) was added to control wells instead of test compound. In addition, DMSO (1.5 μL) was added to blank wells instead of the test compound, and PDH solution was added instead of the PDH/hPDHK2 complex solution. To measure an inhibitory action of the test compound on the PDHK activity inherent in the PDH solution, a test compound was added and the PDH solution instead of the PDH/hPDHK2 complex solution was added to a blank+test compound well. […]

Compound	IC50	inhibition at 0.1 µM
C[C@H]1Cc2c(C(F)(F)F)noc2-c2cnc([C@@](C)(O)C(F)(F)F)n21 (racemic) [Example 3]	17 nM	
C[C@H]1Cn2nc(C3CC3)cc2-c2cnc([C@@](C)(O)C(F)(F)F)n21 [Example 10]	13 nM	
C[C@H]1Cn2nc(OC3CCOCC3)cc2-c2cnc([C@@](C)(O)C(F)(F)F)n21 [Example 77]	17 nM	
C[C@H]1Cc2c(C(F)(F)F)nn(C)c2-c2cnc([C@@](C)(O)C(F)(F)F)n21 (racemic) [Example 24, 2-(1,5-dimethyl-3-(trifluoromethyl)-4,5-dihydro-1H-imidazo[1,5-a]pyrazolo[3,4-c]pyridin-7-yl)-1,1,1-trifluoropropan-2-ol]	> 100 nM	31%
C[C@H]1Cc2c(C(F)(F)F)n[nH]c2-c2cnc([C@@](C)(O)C(F)(F)F)n21 (racemic) [Example 50, 1,1,1-trifluoro-2-(5-methyl-3-(trifluoromethyl)-4,5-dihydro-1H-imidazo[1,5-a]pyrazolo[3,4-c]pyridin-7-yl)propan-2-ol]	27 nM	
C[C@H]1Cc2c(noc2C2CC2)-c2cnc([C@@](C)(O)C(F)(F)F)n21 (racemic) [Example 35, 2-(3-cyclopropyl-5-methyl-4,5-dihydroimidazo[1,5-a]isoxazolo[3,4-c]pyridin-7-yl)-1,1,1-trifluoropropan-2-ol]	19 nM	
C[C@H]1Cn2c(nnc2C(C)(C(F)(F)F)C(F)(F)F)-c2cnc([C@@](C)(O)C(F)(F)F)n21 [Example 100]	9.5 nM	
C[C@H]1Cn2nc(OC(C)(C)C(C)(C)O)cc2-c2cnc([C@@](C)(O)C(F)(F)F)n21 [Example 80]	13 nM	
C[C@H]1Cn2c(nnc2C2(C)CC2)-c2cnc([C@@](C)(O)C(F)(F)F)n21 [Example 17]	7.3 nM	
CC(=O)N1CCC(Oc2cc3n(n2)C[C@H](C)n2c-3cnc2[C@@](C)(O)C(F)(F)F)CC1 [Example 71]	26 nM	
C[C@H]1Cn2c(nnc2C(O)(C(F)(F)F)C(F)(F)F)-c2cnc([C@@](C)(O)C(F)(F)F)n21 [Example 92]	16 nM	
C[C@H]1Cn2nc(OCC(C)(C)O)cc2-c2cnc([C@@](C)(O)C(F)(F)F)n21 [Example 52, (R)-1,1,1-trifluoro-2-((S)-9-(2-hydroxy-2-methylpropoxy)-5-methyl-5,6-dihydroimidazo[1,5-a]pyrazolo[5,1-c]pyrazin-3-yl)propan-2-ol]	21 nM	
Cc1nnc2n1C[C@H](C)n1c-2cnc1[C@@](C)(O)C(F)(F)F [Example 16]	12 nM	
C[C@H]1Cn2nc(OCC3(CC#N)CC3)cc2-c2cnc([C@@](C)(O)C(F)(F)F)n21 [Example 57]	22 nM	
C[C@H]1Cn2nc(C#N)cc2-c2cnc([C@@](C)(O)C(F)(F)F)n21 [Example 42]	24 nM	
C[C@H]1Cn2c(cnc2C(F)(F)F)-c2cnc([C@@](C)(O)C(F)(F)F)n21 [Example 7]	7.5 nM	
C[C@H]1Cn2c(nnc2C2CC2c2ccccc2)-c2cnc([C@@](C)(O)C(F)(F)F)n21 (some centres unmarked) [Example 97]	6.2 nM	
C[C@H]1Cn2nc(OC(C)(C)C)cc2-c2cnc([C@@](C)(O)C(F)(F)F)n21 [Example 55]	16 nM	
C[C@H]1Cn2nc(OCC3CC4CCC(C3)S4(=O)=O)cc2-c2cnc([C@@](C)(O)C(F)(F)F)n21 (some centres unmarked) [Example 83]	16 nM	
C[C@H]1Cn2nc(OCc3ccc(C#N)cc3)cc2-c2cnc([C@@](C)(O)C(F)(F)F)n21 [Example 49]	8.8 nM	
C[C@H]1Cn2nc(C(F)F)cc2-c2cnc([C@@](C)(O)C(F)(F)F)n21 [Example 29]	38 nM	
CC(=O)N1CCC(COc2cc3n(n2)C[C@H](C)n2c-3cnc2[C@@](C)(O)C(F)(F)F)CC1 [Example 67]	19 nM	
C[C@H]1Cc2c(C3CC3)noc2-c2cnc([C@@](C)(O)C(F)(F)F)n21 (racemic) [Example 34, 2-(3-cyclopropyl-5-methyl-4,5-dihydroimidazo[1,5-a]isoxazolo[5,4-c]pyridin-7-yl)-1,1,1-trifluoropropan-2-ol]	21 nM	

Compound	IC50	inhibition at 0.1 µM
C[C@H]1Cn2c(cc(=O)n2C(F)F)-c2cnc([C@@](C)(O)C(F)(F)F)n21 [Example 103]	26 nM	
C[C@H]1Cn2nc(OCCC3(C#N)CC3)cc2-c2cnc([C@@](C)(O)C(F)(F)F)n21 [Example 88]	17 nM	
COc1ccc(COCc2cc3n(n2)C[C@H](C)n2c-3cnc2[C@@](C)(O)C(F)(F)F)cc1 [Example 33]	29 nM	
C[C@H]1Cn2c(nnc2C(F)(F)c2ccc(C(F)(F)F)cn2)-c2cnc([C@@](C)(O)C(F)(F)F)n21 [Example 87]	8.7 nM	
C[C@H]1Cn2nc(OCC(C)(C)C#N)cc2-c2cnc([C@@](C)(O)C(F)(F)F)n21 [Example 79]	15 nM	
C[C@H]1Cn2ncc(Cl)c2-c2cnc([C@@](C)(O)C(F)(F)F)n21 [Example 11]	34 nM	
C[C@H]1Cn2nc(Oc3cc(C(F)(F)F)ncn3)cc2-c2cnc([C@@](C)(O)C(F)(F)F)n21 [Example 70]	19 nM	
C[C@H]1Cn2nc(OCF)cc2-c2cnc([C@@](C)(O)C(F)(F)F)n21 [Example 48]	14 nM	
C[C@H]1Cn2nccc2-c2cnc([C@@](C)(O)C(F)(F)F)n21 [Example 8]	7.7 nM	
C[C@H]1Cn2nc(OCC3CCS(=O)(=O)CC3)cc2-c2cnc([C@@](C)(O)C(F)(F)F)n21 [Example 82]	23 nM	
C[C@H]1Cn2nc(OCC3CCN(C(=O)c4ccc(F)cc4)CC3)cc2-c2cnc([C@@](C)(O)C(F)(F)F)n21 [Example 69]	15 nM	
CC[C@H]1Cn2nc(C(F)(F)F)cc2-c2cnc([C@@](C)(O)C(F)(F)F)n21 [Example 12]	> 100 nM	35%
C[C@H]1Cn2c(C(F)(F)F)cnc2-c2cnc([C@@](C)(O)C(F)(F)F)n21 [Example 18]	6.5 nM	
C[C@H]1Cc2c(C(C)(C)O)noc2-c2cnc([C@@](C)(O)C(F)(F)F)n21 (racemic) [Example 25]	18 nM	
C[C@H]1Cn2cc(C(F)(F)F)nc2-c2cnc([C@@](C)(O)C(F)(F)F)n21 [Example 19]	11 nM	
C[C@H]1Cn2ncc(F)c2-c2cnc([C@@](C)(O)C(F)(F)F)n21 [Example 44]	17 nM	
C[C@H]1Cn2c(nnc2C2(c3ccc(F)cc3)CC2)-c2cnc([C@@](C)(O)C(F)(F)F)n21 [Example 81]	7.3 nM	
C[C@H]1Cn2c(nnc2C2(C(F)(F)F)CC2)-c2cnc([C@@](C)(O)C(F)(F)F)n21 [Example 40]	11 nM	
C[C@H]1Cn2nc(C(F)(F)F)cc2-c2nnc([C@@](C)(O)C(F)(F)F)n21 [Example 13, (R)-1,1,1-trifluoro-2-((S)-5-methyl-9-(trifluoromethyl)-5,6-dihydropyrazolo[1,5-a] [1,2,4]triazolo[3,4-c]pyrazin-3-yl)propan-2-ol]	13 nM	
C[C@H]1Cn2c(nnc2C(C)(F)F)-c2cnc([C@@](C)(O)C(F)(F)F)n21 [Example 90]	15 nM	
C[C@H]1Cn2nc(Oc3cc(C4CC4)ncn3)cc2-c2cnc([C@@](C)(O)C(F)(F)F)n21 [Example 72]	12 nM	
C[C@H]1Cn2nc(OCC(F)(F)F)cc2-c2cnc([C@@](C)(O)C(F)(F)F)n21 [Example 74]	12 nM	
